Data: BindingDB's records for doi:10.1016/0960-894X(95)00509-R (1995)

target: Platelet-activating factor receptor (Oryctolagus cuniculus); test: Tested in vitro for antagonistic activity to displace [3H]PAF from rabbit platelet membrane PAF receptors

Ki	SMILES
17 nM	CN(C)C(=O)n1cc(C(=O)c2ccn3c2CSC3c2cccnc2)c2ccc(OCc3ccccc3)cc21 (stereo not given) [6-Benzyloxy-3-(3-pyridin-3-yl-1H-pyrrolo[1,2-c]thiazole-7-carbonyl)-indole-1-carboxylic acid dimethylamide]
327 nM	O=C(c1ccn2c1CSC2c1cccnc1)c1c[nH]c2cccc(O)c12 (stereo not given) [(4-Hydroxy-1H-indol-3-yl)-(3-pyridin-3-yl-1H-pyrrolo[1,2-c]thiazol-7-yl)-methanone]
90 nM	O=C(c1ccn2c1CSC2c1cccnc1)c1c[nH]c2c(OCc3ccccc3)cccc12 (stereo not given) [(7-Benzyloxy-1H-indol-3-yl)-(3-pyridin-3-yl-1H-pyrrolo[1,2-c]thiazol-7-yl)-methanone]
120 nM	CN(C)C(=O)n1cc(C(=O)c2ccn3c2CSC3c2cccnc2)c2cc(OCc3ccccc3)ccc21 (stereo not given) [5-Benzyloxy-3-(3-pyridin-3-yl-1H-pyrrolo[1,2-c]thiazole-7-carbonyl)-indole-1-carboxylic acid dimethylamide]
1.7 nM	CN(C)C(=O)n1cc(C(=O)c2ccn3c2CSC3c2cccnc2)c2ccc(Oc3ccc(F)cc3)cc21 (stereo not given) [6-(4-Fluoro-phenoxy)-3-(3-pyridin-3-yl-1H-pyrrolo[1,2-c]thiazole-7-carbonyl)-indole-1-carboxylic acid dimethylamide]
75 nM	O=C(c1ccn2c1CSC2c1cccnc1)c1c[nH]c2cc(-c3ccc(F)cc3)ccc12 (stereo not given) [[6-(4-Fluoro-phenyl)-1H-indol-3-yl]-(3-pyridin-3-yl-1H-pyrrolo[1,2-c]thiazol-7-yl)-methanone]
17 nM	CN(C)C(=O)n1cc(C(=O)c2ccn3c2CSC3c2cccnc2)c2ccc(Sc3ccc(F)cc3)cc21 (stereo not given) [6-(4-Fluoro-phenylsulfanyl)-3-(3-pyridin-3-yl-1H-pyrrolo[1,2-c]thiazole-7-carbonyl)-indole-1-carboxylic acid dimethylamide]
180 nM	O=C(c1ccn2c1CSC2c1cccnc1)c1c[nH]c2ccc(OCc3ccccc3)cc12 (stereo not given) [(5-Benzyloxy-1H-indol-3-yl)-(3-pyridin-3-yl-1H-pyrrolo[1,2-c]thiazol-7-yl)-methanone]
110 nM	CC(C)(C)OC(=O)n1cc(C(=O)c2ccn3c2CSC3c2cccnc2)c2ccccc21 (stereo not given) [3-(3-Pyridin-3-yl-1H-pyrrolo[1,2-c]thiazole-7-carbonyl)-indole-1-carboxylic acid tert-butyl ester]
7 nM	Cn1cc(C(=O)c2ccn3c2CSC3c2cccnc2)c2ccc(-c3ccc(F)cc3)cc21 (stereo not given) [[6-(4-Fluoro-phenyl)-1-methyl-1H-indol-3-yl]-(3-pyridin-3-yl-1H-pyrrolo[1,2-c]thiazol-7-yl)-methanone]
225 nM	O=C(c1ccn2c1CSC2c1cccnc1)c1cn(C(=O)N2CCOCC2)c2ccccc12 (stereo not given) [Morpholin-4-yl-[3-(3-pyridin-3-yl-1H-pyrrolo[1,2-c]thiazole-7-carbonyl)-indol-1-yl]-methanone]
6 nM	NC(=O)n1cc(C(=O)c2ccn3c2CSC3c2cccnc2)c2ccc(-c3ccc(F)cc3)cc21 (stereo not given) [6-(4-Fluoro-phenyl)-3-(3-pyridin-3-yl-1H-pyrrolo[1,2-c]thiazole-7-carbonyl)-indole-1-carboxylic acid amide]
13 nM	CN(C)C(=O)n1cc(C(=O)c2ccn3c2CSC3c2cccnc2)c2ccc(Cc3ccccc3)cc21 (stereo not given) [6-Benzyl-3-(3-pyridin-3-yl-1H-pyrrolo[1,2-c]thiazole-7-carbonyl)-indole-1-carboxylic acid dimethylamide]
95 nM	CN(C)C(=O)n1cc(C(=O)c2ccn3c2CSC3c2cccnc2)c2ccccc21 (stereo not given) [3-(3-Pyridin-3-yl-1H-pyrrolo[1,2-c]thiazole-7-carbonyl)-indole-1-carboxylic acid dimethylamide]
19 nM	CCNC(=O)n1cc(C(=O)c2ccn3c2CSC3c2cccnc2)c2ccc(-c3ccc(F)cc3)cc21 (stereo not given) [6-(4-Fluoro-phenyl)-3-(3-pyridin-3-yl-1H-pyrrolo[1,2-c]thiazole-7-carbonyl)-indole-1-carboxylic acid ethylamide]
89 nM	CN(C)C(=O)n1cc(C(=O)c2ccn3c2CSC3c2cccnc2)c2ccc(Cl)cc21 (stereo not given) [6-Chloro-3-(3-pyridin-3-yl-1H-pyrrolo[1,2-c]thiazole-7-carbonyl)-indole-1-carboxylic acid dimethylamide]
64 nM	O=C(c1ccn2c1CSC2c1cccnc1)c1c[nH]c2cc(OCc3ccccc3)ccc12 (stereo not given) [(6-Benzyloxy-1H-indol-3-yl)-(3-pyridin-3-yl-1H-pyrrolo[1,2-c]thiazol-7-yl)-methanone]
25 nM	NNC(=O)n1cc(C(=O)c2ccn3c2CSC3c2cccnc2)c2ccc(-c3ccc(F)cc3)cc21 (stereo not given) [6-(4-Fluoro-phenyl)-3-(3-pyridin-3-yl-1H-pyrrolo[1,2-c]thiazole-7-carbonyl)-indole-1-carboxylic acid hydrazide]
23 nM	CN(C)C(=O)n1cc(C(=O)c2ccn3c2CSC3c2cccnc2)c2ccc(-c3ccccc3)cc21 (stereo not given) [6-Phenyl-3-(3-pyridin-3-yl-1H-pyrrolo[1,2-c]thiazole-7-carbonyl)-indole-1-carboxylic acid dimethylamide]

SMILES	Ki
CN(C)C(=O)Cn1cc(C(=O)c2ccn3c2CSC3c2cccnc2)c2ccc(-c3ccc(F)cc3)cc21 (stereo not given) [2-[6-(4-Fluoro-phenyl)-3-(3-pyridin-3-yl-1H-pyrrolo[1,2-c]thiazole-7-carbonyl)-indol-1-yl]-N,N-dimethyl-acetamide]	0.7 nM
